Measurements from the NIST ThermoML archive (doi:10.1016/j.jct.2017.03.011).
Numbers after ± are expanded uncertainties.

Tests used:
[1] = Molar enthalpy of transition or fusion; details: DSC

Normal melting temperature (Crystal 1, DTA): 83.00 ± 2 °C
Triple point temperature (Crystal 2, DSC): 316.55 ± 2.1 K
Molar enthalpy of transition or fusion ([1]; Crystal 1): 3.28 ± 0.335 kcal/mol
Molar enthalpy of transition or fusion ([1]; Crystal 2): 0.416 ± 0.0478 kcal/mol
Compound: O=C1COC(=O)CO1 [1,4-dioxane-2,5-dione]
